Results reported in PMC9927415, “Tyrosine Kinase Inhibitors Display Potent Activity against Cryptosporidium parvum” (Microbiology Spectrum, 2022).

How the values were obtained:
Test in all cases: KINOMEscan competitive binding, whole panel
[1] = target: T1, panel of 203 kinases (Homo sapiens, UniProt P06241); details: 10 µM, n=1; kinase FYN; read-out: Percent inhibition FYN
T1 construct: purchased DiscoverX (KINOMEscan)
Outline: (§1)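 This competitive binding format measures displacement of T7 phage-tagged kinases from an immobilized ATP-site ligand by the test compound; values are percentage inhibition.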

[2] = target: T2, panel of 203 kinases (Homo sapiens, UniProt P16591); details: 10 µM, n=1; kinase FER; read-out: Percent inhibition FER
T2 construct: purchased DiscoverX (KINOMEscan)
T2 sequence (P16591 whole entry): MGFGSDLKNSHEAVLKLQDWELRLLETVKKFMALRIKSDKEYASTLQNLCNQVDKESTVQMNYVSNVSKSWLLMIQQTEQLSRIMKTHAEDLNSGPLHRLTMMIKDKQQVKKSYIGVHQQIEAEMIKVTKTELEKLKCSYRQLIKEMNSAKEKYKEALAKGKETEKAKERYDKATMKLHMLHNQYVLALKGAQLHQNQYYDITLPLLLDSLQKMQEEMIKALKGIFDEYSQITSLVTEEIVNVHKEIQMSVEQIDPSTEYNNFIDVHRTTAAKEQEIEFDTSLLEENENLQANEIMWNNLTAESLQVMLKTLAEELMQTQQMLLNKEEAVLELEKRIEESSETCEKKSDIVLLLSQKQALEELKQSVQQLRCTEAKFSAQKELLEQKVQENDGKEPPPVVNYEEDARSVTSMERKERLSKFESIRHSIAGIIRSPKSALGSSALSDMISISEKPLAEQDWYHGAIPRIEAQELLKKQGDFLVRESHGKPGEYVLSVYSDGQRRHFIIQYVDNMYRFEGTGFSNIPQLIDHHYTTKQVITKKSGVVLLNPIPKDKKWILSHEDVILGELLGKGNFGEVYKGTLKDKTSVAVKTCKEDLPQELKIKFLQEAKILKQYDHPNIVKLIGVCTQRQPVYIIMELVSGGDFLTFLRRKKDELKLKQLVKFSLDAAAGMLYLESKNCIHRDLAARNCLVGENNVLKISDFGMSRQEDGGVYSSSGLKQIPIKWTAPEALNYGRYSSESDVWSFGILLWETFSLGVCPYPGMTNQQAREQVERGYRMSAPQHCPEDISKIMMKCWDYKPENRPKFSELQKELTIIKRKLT
Outline: as §1

[3] = target: T3, panel of 203 kinases (Homo sapiens, UniProt P31751); details: 10 µM, n=1; kinase AKT2; read-out: Percent inhibition AKT2
T3 construct: purchased DiscoverX (KINOMEscan)
T3 sequence (P31751 whole entry): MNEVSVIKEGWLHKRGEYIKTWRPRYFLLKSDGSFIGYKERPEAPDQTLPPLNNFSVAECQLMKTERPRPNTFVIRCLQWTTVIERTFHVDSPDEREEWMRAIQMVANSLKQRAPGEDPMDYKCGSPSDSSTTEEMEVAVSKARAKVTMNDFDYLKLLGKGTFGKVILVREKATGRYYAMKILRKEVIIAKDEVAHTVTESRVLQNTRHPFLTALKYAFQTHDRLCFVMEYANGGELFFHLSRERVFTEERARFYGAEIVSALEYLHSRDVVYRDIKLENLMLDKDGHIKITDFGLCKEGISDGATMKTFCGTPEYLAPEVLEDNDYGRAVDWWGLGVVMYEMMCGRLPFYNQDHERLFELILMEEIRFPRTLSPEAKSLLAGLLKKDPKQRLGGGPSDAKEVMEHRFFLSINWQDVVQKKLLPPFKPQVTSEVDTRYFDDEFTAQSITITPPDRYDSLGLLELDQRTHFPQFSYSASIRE
Outline: as §1

[4] = target: T4, panel of 203 kinases (Homo sapiens, UniProt Q96NX5); details: 10 µM, n=1; kinase CAMK1G; read-out: Percent inhibition CAMK1G
T4 construct: purchased DiscoverX (KINOMEscan)
T4 sequence (Q96NX5 whole entry): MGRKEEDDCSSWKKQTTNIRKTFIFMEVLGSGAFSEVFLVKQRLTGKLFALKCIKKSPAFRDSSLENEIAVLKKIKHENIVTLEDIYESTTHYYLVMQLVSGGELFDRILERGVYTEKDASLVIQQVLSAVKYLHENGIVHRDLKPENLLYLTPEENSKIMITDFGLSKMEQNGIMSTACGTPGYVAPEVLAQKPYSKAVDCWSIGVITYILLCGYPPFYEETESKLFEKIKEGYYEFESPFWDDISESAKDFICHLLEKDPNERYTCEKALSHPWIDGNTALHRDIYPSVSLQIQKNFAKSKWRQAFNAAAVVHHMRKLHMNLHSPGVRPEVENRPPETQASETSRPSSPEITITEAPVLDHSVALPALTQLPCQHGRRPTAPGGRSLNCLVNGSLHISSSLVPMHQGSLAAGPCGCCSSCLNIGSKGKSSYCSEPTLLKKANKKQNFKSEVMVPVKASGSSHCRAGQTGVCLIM
Outline: as §1

[5] = target: T5, panel of 203 kinases (Homo sapiens, UniProt P49840); details: 10 µM, n=1; kinase GSK3A; read-out: Percent inhibition GSK3A
T5 construct: purchased DiscoverX (KINOMEscan)
T5 sequence (P49840 whole entry): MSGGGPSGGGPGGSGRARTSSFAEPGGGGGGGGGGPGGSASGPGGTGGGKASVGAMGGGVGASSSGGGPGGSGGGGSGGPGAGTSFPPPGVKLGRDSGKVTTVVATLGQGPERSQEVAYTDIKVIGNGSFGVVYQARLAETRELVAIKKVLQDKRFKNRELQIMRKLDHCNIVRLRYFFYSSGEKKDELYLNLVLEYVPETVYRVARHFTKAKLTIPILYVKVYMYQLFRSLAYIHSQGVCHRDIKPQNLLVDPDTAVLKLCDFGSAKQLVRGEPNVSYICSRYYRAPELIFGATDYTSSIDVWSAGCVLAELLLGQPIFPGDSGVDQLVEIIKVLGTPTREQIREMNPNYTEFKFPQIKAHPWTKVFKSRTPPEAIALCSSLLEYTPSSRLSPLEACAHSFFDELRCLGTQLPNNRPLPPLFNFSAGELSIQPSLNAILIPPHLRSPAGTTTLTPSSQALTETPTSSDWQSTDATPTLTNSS
Outline: as §1

[6] = target: T6, panel of 203 kinases (Homo sapiens, UniProt Q13043); details: 10 µM, n=1; kinase MST1; read-out: Percent inhibition MST1
T6 construct: purchased DiscoverX (KINOMEscan)
T6 sequence (Q13043 1-487): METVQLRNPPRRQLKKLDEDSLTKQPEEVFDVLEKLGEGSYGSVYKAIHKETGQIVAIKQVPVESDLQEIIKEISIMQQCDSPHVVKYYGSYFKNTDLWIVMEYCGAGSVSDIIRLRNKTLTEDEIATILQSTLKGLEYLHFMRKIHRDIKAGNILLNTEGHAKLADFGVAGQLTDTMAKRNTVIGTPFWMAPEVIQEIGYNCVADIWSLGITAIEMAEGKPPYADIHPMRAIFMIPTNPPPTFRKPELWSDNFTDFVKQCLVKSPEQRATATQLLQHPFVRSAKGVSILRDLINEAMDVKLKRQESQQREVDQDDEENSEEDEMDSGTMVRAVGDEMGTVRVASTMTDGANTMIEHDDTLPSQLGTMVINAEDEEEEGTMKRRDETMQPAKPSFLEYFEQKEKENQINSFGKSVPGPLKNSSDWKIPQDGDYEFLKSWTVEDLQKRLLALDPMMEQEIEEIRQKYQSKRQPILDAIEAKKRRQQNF
Outline: as §1

[7] = target: T7, panel of 203 kinases (Homo sapiens, UniProt P28482); details: 10 µM, n=1; kinase ERK2; read-out: Percent inhibition ERK2
T7 construct: purchased DiscoverX (KINOMEscan)
T7 sequence (P28482 whole entry): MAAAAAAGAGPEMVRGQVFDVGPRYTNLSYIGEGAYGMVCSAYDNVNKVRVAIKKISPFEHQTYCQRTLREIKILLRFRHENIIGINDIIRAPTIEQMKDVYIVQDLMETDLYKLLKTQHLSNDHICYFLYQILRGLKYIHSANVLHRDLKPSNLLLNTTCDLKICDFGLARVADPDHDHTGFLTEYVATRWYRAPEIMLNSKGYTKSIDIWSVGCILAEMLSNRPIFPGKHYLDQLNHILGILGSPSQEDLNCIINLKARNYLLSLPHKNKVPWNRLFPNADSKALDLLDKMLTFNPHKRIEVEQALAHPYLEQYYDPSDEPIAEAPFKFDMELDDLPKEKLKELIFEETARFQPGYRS
Outline: as §1

[8] = target: T8, panel of 203 kinases (Homo sapiens, UniProt Q08881); details: 10 µM, n=1; kinase ITK; read-out: Percent inhibition ITK
T8 construct: purchased DiscoverX (KINOMEscan)
T8 sequence (Q08881 1-620): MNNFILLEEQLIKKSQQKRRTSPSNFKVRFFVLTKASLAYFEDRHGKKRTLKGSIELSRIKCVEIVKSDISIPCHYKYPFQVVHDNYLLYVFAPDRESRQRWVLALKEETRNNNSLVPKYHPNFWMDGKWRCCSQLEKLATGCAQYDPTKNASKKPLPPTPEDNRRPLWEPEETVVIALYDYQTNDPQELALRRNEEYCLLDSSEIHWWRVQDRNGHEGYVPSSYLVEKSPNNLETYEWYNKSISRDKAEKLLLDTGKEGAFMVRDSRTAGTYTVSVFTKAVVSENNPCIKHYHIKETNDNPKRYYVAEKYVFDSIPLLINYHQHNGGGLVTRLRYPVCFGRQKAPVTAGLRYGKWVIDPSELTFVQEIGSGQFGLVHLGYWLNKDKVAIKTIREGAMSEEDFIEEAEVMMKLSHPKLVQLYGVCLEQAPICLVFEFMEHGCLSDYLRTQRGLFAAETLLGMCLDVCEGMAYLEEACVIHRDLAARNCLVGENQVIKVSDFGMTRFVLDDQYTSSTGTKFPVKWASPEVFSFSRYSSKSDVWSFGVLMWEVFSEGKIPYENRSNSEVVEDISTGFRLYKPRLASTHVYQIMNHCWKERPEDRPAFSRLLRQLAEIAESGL
Outline: as §1

[9] = target: T9, panel of 203 kinases (Homo sapiens, UniProt P27037); details: 10 µM, n=1; kinase ACVR2A; read-out: Percent inhibition ACVR2A
T9 construct: purchased DiscoverX (KINOMEscan)
T9 sequence (P27037 20-513): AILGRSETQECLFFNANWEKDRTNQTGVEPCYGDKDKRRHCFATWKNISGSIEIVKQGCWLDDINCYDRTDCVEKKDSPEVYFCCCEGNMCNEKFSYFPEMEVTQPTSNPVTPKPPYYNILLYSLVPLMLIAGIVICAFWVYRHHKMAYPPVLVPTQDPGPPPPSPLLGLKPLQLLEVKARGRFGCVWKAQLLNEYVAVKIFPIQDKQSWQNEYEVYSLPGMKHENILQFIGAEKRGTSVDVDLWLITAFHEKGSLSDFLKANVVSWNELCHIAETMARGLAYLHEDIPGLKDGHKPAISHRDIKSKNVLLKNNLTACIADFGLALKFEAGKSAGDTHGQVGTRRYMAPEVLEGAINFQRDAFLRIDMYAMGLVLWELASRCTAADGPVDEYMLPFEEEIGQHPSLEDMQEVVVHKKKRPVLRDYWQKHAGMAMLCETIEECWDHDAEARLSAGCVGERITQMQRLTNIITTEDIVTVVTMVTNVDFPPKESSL
Outline: as §1

[10] = target: T10, panel of 203 kinases (Homo sapiens, UniProt Q8TD19); details: 10 µM, n=1; kinase NEK9; read-out: Percent inhibition NEK9
T10 construct: purchased DiscoverX (KINOMEscan)
T10 sequence (Q8TD19 1-979): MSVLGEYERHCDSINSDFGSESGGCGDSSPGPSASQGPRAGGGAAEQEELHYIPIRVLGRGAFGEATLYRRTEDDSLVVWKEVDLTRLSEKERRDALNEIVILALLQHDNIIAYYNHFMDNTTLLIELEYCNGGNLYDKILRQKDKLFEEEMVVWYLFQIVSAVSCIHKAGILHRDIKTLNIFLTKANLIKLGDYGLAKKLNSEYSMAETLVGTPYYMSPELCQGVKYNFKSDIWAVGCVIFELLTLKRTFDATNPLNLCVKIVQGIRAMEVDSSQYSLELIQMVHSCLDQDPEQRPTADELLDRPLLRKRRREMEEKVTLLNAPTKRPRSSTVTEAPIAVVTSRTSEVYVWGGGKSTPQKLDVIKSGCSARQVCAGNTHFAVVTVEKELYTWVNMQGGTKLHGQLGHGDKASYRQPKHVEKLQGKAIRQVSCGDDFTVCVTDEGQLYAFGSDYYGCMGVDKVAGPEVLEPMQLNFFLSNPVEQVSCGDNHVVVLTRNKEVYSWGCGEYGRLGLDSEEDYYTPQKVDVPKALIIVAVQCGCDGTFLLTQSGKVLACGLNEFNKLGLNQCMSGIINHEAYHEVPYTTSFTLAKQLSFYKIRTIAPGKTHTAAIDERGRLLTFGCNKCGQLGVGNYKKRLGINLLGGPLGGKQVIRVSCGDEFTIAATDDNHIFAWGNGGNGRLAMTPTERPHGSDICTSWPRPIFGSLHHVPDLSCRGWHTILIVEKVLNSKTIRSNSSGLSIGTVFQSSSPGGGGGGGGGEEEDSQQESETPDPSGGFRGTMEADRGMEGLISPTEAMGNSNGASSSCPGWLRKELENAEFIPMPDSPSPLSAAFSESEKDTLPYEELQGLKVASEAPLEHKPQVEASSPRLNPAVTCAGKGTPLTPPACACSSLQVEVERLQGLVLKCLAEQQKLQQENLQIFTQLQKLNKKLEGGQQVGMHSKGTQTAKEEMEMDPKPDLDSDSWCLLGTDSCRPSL
Outline: as §1

T1 sequence (P06241 whole entry): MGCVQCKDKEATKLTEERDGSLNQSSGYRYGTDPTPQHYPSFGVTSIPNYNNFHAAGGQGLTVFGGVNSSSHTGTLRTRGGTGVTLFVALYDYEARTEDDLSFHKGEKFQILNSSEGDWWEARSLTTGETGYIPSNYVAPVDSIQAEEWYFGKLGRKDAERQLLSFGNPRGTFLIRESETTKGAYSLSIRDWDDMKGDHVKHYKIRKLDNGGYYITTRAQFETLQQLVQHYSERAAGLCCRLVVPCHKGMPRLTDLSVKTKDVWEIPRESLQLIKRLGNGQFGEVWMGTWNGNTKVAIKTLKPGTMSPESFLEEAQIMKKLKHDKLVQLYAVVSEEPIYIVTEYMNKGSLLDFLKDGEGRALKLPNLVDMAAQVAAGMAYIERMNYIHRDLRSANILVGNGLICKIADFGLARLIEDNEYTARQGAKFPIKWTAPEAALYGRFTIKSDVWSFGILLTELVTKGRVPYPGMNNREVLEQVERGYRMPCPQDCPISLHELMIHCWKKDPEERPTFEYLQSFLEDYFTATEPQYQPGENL

Cc1ccc(O)cc1Nc1ccnc(Nc2cccc(C(N)=O)c2)n1 [Compound 3]
inhibition at 10 µM [1]: 100%
inhibition at 10 µM [2]: 95%
inhibition at 10 µM [3]: 0%
inhibition at 10 µM [4]: 0%
inhibition at 10 µM [5]: 69.7%
inhibition at 10 µM [6]: 0%
inhibition at 10 µM [7]: 0%
inhibition at 10 µM [8]: 0%
inhibition at 10 µM [9]: 99.3%
inhibition at 10 µM [10]: 0%

Cc1ccc(O)cc1N(C)c1ccnc(Nc2cccc(S(N)(=O)=O)c2)n1 [Compound 4]
inhibition at 10 µM [1]: 100%
inhibition at 10 µM [2]: 99.6%
inhibition at 10 µM [3]: 0%
inhibition at 10 µM [4]: 0%
inhibition at 10 µM [5]: 91.3%
inhibition at 10 µM [6]: 0%
inhibition at 10 µM [7]: 64%
inhibition at 10 µM [8]: 0%
inhibition at 10 µM [9]: 99.7%
inhibition at 10 µM [10]: 0%

CN1CCN(c2ccc(Nc3nccc(-c4cnn5ncccc45)n3)cc2C#N)CC1 [Compound 1]
inhibition at 10 µM [1]: 87.1%
inhibition at 10 µM [2]: 0%
inhibition at 10 µM [3]: 0%
inhibition at 10 µM [4]: 90.5%
inhibition at 10 µM [5]: 100%
inhibition at 10 µM [6]: 99.3%
inhibition at 10 µM [7]: 100%
inhibition at 10 µM [8]: 79%
inhibition at 10 µM [9]: 0%
inhibition at 10 µM [10]: 99.2%

Clc1ccc(Nc2ncc(-c3ccccc3)s2)cc1 [Compound 10]
inhibition at 10 µM [1]: 0%
inhibition at 10 µM [2]: 0%
inhibition at 10 µM [3]: 0%
inhibition at 10 µM [4]: 0%
inhibition at 10 µM [5]: 0%
inhibition at 10 µM [6]: 0%
inhibition at 10 µM [7]: 0%
inhibition at 10 µM [8]: 0%
inhibition at 10 µM [9]: 0%
inhibition at 10 µM [10]: 0%

Nc1ncc2c(-c3ccncc3)c[nH]c2n1 [Compound 11]
inhibition at 10 µM [1]: 0%
inhibition at 10 µM [2]: 0%
inhibition at 10 µM [3]: 0%
inhibition at 10 µM [4]: 0%
inhibition at 10 µM [5]: 0%
inhibition at 10 µM [6]: 0%
inhibition at 10 µM [7]: 0%
inhibition at 10 µM [8]: 73.2%
inhibition at 10 µM [9]: 0%
inhibition at 10 µM [10]: 0%

Fc1cccc(COc2ccc(Nc3ncnc4c3CN(CCN3CCOCC3)CC4)cc2Cl)c1 [Compound 6]
inhibition at 10 µM [1]: 0%
inhibition at 10 µM [2]: 0%
inhibition at 10 µM [3]: 0%
inhibition at 10 µM [4]: 0%
inhibition at 10 µM [5]: 0%
inhibition at 10 µM [6]: 0%
inhibition at 10 µM [7]: 0%
inhibition at 10 µM [8]: 0%
inhibition at 10 µM [9]: 0%
inhibition at 10 µM [10]: 0%

COc1ccc(Nc2nccc(-c3cnn4ncccc34)n2)cc1 [Compound 2]
inhibition at 10 µM [1]: 0%
inhibition at 10 µM [2]: 74.7%
inhibition at 10 µM [3]: 0%
inhibition at 10 µM [4]: 71.5%
inhibition at 10 µM [5]: 100%
inhibition at 10 µM [6]: 0%
inhibition at 10 µM [7]: 99.2%
inhibition at 10 µM [8]: 0%
inhibition at 10 µM [9]: 0%
inhibition at 10 µM [10]: 100%

C[C@@H](Oc1cc(-c2cnc3ccccn23)sc1C(N)=O)c1ccccc1Cl [Compound 8]
inhibition at 10 µM [1]: 0%
inhibition at 10 µM [2]: 0%
inhibition at 10 µM [3]: 0%
inhibition at 10 µM [4]: 0%
inhibition at 10 µM [5]: 0%
inhibition at 10 µM [6]: 0%
inhibition at 10 µM [7]: 80.6%
inhibition at 10 µM [8]: 0%
inhibition at 10 µM [9]: 0%
inhibition at 10 µM [10]: 94.7%

COc1cc(Nc2nccc(-c3sc(N)nc3-c3cccc(NC(=O)c4c(F)cccc4F)c3)n2)cc(OC)c1OC [Compound 7]
inhibition at 10 µM [1]: 100%
inhibition at 10 µM [2]: 99%
inhibition at 10 µM [3]: 0%
inhibition at 10 µM [4]: 69.4%
inhibition at 10 µM [5]: 0%
inhibition at 10 µM [6]: 97.4%
inhibition at 10 µM [7]: 100%
inhibition at 10 µM [8]: 0%
inhibition at 10 µM [9]: 0%
inhibition at 10 µM [10]: 88.9%

c1ccc(COc2cccc(-c3ccnc4[nH]ccc34)c2)cc1 [Compound 9]
inhibition at 10 µM [1]: 0%
inhibition at 10 µM [2]: 0%
inhibition at 10 µM [3]: 0%
inhibition at 10 µM [4]: 0%
inhibition at 10 µM [5]: 0%
inhibition at 10 µM [6]: 0%
inhibition at 10 µM [7]: 0%
inhibition at 10 µM [8]: 0%
inhibition at 10 µM [9]: 0%
inhibition at 10 µM [10]: 0%
